These results are taken from patent US9340590B2 (priority 2011, dated 2016).

Read-outs that look alike come from different tables or passages of the source. Positions of bridges follow the written chain, without caps; N, C: chain ends. Residues, ends and D or L forms follow the SMILES beside them.

The target of assay [1] is hNav1.7 (Homo sapiens, UniProt Q15858). The experiment in a line: cell-based. Particulars: for IC50: read-out: IWQ Use Nav1.7. Type of assay: cell-based.
For assay [2], the target named is hNav1.3 (Homo sapiens, UniProt Q9NY46). Nature of the assay: cell-based. To be noted: for Nav1.7/Nav1.3: Nav1.7 over Nav1.3.
Chain of hNav1.3 (Q9NY46 whole entry, looked up): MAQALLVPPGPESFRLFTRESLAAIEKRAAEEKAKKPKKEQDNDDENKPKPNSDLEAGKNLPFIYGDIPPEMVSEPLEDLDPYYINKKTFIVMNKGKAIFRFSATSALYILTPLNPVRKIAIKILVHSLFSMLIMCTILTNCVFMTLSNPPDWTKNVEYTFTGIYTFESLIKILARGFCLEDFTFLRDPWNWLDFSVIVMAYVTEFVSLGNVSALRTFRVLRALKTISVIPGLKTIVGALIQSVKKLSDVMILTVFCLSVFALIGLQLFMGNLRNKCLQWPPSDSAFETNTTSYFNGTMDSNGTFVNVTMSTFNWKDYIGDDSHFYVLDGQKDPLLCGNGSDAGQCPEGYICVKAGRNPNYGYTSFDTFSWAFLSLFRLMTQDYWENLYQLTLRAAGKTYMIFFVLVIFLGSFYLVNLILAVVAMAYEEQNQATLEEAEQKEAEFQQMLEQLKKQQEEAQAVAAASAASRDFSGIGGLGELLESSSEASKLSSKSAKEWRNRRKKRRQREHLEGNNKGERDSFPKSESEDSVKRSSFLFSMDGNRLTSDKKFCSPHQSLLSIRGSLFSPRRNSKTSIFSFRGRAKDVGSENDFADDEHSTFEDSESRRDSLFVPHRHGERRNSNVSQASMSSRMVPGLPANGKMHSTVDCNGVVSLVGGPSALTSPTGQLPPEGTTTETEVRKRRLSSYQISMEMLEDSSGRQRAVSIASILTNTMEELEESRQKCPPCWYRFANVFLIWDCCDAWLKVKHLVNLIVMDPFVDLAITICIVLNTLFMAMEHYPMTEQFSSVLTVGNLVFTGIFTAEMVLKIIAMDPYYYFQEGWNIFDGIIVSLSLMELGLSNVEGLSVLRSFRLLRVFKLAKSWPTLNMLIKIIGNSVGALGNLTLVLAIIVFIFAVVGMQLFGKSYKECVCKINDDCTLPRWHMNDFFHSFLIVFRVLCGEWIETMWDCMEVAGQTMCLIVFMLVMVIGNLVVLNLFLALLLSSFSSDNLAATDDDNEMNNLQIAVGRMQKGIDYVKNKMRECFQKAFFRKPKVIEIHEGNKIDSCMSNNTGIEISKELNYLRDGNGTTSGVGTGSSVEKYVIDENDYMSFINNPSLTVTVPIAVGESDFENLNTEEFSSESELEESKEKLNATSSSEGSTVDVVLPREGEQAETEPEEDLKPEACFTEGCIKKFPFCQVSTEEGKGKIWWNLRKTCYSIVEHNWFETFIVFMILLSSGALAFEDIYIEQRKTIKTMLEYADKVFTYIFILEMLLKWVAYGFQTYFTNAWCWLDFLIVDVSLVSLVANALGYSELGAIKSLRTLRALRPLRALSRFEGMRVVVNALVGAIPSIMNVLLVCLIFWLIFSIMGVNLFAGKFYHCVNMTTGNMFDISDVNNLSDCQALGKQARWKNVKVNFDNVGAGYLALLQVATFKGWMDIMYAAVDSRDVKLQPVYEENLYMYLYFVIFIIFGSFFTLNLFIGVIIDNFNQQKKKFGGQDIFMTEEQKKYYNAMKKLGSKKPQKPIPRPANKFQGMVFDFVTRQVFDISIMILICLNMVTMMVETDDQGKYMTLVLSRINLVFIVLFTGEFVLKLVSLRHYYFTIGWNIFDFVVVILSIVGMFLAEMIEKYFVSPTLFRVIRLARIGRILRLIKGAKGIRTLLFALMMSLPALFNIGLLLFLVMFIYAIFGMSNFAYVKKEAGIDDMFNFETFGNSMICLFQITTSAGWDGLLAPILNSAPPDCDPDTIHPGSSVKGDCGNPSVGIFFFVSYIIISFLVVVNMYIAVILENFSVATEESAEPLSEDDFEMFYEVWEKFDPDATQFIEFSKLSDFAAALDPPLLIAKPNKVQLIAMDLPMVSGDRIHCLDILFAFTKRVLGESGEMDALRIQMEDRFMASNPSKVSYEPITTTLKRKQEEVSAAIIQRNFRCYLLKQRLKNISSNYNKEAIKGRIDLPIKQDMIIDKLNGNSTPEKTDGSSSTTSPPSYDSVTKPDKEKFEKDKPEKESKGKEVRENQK
Setting [3] is: ratio of IWQ Use values, Nav1.4 over Nav1.7.
[4] abbreviates: ratio of IWQ Use values, Nav1.4 over Nav1.3.
Where [5] appears, read: IonWorks Quattro, clamped to −110 mV, depolarized to −10 mV, 5 min after compound, n=2.

Chain of hNav1.7 (Q15858 whole entry, looked up): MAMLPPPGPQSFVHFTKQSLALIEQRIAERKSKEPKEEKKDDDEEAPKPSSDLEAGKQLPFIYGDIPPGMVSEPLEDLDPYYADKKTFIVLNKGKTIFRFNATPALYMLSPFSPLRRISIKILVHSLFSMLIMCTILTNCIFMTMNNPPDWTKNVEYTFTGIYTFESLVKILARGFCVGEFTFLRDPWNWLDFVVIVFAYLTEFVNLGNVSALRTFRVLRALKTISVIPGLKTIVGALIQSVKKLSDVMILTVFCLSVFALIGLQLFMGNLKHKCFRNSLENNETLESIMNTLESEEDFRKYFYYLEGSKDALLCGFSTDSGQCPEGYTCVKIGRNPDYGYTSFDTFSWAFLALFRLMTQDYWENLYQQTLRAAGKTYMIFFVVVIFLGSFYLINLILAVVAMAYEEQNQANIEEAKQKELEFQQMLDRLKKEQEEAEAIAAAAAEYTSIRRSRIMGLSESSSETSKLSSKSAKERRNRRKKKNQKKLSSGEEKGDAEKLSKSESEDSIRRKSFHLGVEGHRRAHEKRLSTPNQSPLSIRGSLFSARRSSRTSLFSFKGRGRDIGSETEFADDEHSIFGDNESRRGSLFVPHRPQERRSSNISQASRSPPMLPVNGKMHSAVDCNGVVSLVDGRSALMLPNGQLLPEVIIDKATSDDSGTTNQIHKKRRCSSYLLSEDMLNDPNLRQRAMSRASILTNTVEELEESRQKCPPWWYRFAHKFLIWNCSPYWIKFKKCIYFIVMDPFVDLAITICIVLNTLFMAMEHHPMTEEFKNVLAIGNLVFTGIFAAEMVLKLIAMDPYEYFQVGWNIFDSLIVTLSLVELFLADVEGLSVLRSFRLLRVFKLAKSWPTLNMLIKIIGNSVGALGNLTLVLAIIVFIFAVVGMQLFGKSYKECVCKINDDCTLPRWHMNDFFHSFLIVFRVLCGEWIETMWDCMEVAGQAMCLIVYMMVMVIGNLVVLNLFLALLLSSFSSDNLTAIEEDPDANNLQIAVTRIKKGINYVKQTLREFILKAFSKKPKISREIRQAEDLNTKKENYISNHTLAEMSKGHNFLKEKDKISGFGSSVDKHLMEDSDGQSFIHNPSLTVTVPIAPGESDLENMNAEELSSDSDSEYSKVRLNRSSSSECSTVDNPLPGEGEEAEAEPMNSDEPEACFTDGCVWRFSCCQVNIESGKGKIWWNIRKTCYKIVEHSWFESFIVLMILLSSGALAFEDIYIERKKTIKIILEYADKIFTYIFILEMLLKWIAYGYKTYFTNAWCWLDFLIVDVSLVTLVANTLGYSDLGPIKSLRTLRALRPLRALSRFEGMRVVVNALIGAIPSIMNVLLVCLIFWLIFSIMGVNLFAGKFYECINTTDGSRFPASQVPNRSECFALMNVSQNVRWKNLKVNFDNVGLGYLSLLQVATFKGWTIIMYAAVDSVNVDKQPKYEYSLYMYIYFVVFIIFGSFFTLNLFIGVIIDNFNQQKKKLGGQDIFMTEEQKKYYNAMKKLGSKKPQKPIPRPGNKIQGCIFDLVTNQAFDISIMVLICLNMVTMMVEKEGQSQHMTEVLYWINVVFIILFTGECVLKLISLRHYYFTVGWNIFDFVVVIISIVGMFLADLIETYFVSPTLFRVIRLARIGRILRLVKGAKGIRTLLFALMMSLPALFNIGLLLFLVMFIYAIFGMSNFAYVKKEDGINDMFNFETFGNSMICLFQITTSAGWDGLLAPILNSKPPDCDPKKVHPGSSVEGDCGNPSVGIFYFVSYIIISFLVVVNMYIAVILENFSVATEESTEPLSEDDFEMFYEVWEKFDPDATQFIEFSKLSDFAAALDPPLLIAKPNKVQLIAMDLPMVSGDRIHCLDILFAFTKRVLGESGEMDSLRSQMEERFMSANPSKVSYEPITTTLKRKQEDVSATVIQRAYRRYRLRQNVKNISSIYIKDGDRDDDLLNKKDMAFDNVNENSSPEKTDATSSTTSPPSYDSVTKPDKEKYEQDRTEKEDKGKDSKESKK

As for `CC[C@H](C)[C@@H]1NC(=O)[C@@H]2CSSC[C@@H]3NC(=O)[C@H](C(C)C)NC(=O)[C@H](CC(C)C)NC(=O)[C@H](CC(N)=O)NC(=O)[C@@H]4CCCN4C(=O)[C@H](CCCNC(=N)N)NC(=O)[C@H](CSSC[C@H](NC(=O)[C@@H](N)CC(=O)O)C(=O)N[C@@H](CC(C)C)C(=O)NCC(=O)N[C@@H](Cc4ccccc4)C(=O)N[C@@H](CCSC)C(=O)N[C@@H](CCCNC(=N)N)C(=O)N[C@@H](CCCCN)C(=O)N2)NC(=O)[C@H](CSSC[C@@H](C(=O)N[C@@H](CCCCN)C(=O)N[C@@H](Cc2ccc(O)cc2)C(=O)N[C@H](C(=O)N[C@@H](Cc2ccccc2)C(N)=O)C(C)C)NC(=O)[C@H](CCCCN)NC(=O)[C@H](CCCCN)NC(=O)[C@H](Cc2c[nH]cn2)NC(=O)[C@H]([C@@H](C)O)NC(=O)[C@H](CCCNC(=N)N)NC(=O)[C@H](CO)NC3=O)NC(=O)[C@H](CCCCN)NC(=O)[C@H](CC(=O)O)NC(=O)[C@H](CC(N)=O)NC(=O)[C@H](CC(=O)O)NC(=O)[C@@H]2CCCN2C1=O` [compound 56] (H-DCLGFMRKCIPDNDKCCRPNLVCSRTHKKCKYVF-NH2; disulfide 2-17, 9-23, 16-30), in assay [1], the Nav1.4/Nav1.7 is 1.4 and the Nav1.7/Nav1.3 is 0.8. The molecule further came in with a Nav1.4/Nav1.3 in assay [2] of 1.1. Consider `CC[C@H](C)[C@@H]1NC(=O)[C@@H]2CSSC[C@@H]3NC(=O)[C@H](C(C)C)NC(=O)[C@H](CC(C)C)NC(=O)[C@H](CC(N)=O)NC(=O)[C@@H]4CCCN4C(=O)[C@H](CCCNC(=N)N)NC(=O)[C@H](CSSC[C@H](NC(=O)[C@@H](N)CC(=O)O)C(=O)N[C@@H](CC(C)C)C(=O)NCC(=O)N[C@@H](Cc4ccc(C(F)(F)F)cc4)C(=O)N[C@@H](CCSC)C(=O)N[C@@H](CCCNC(=N)N)C(=O)N[C@@H](CCCCN)C(=O)N2)NC(=O)[C@H](CSSC[C@@H](C(=O)N[C@@H](CCCCN)C(=O)N[C@@H](Cc2ccc(O)cc2)C(=O)N[C@H](C(=O)N[C@@H](Cc2ccccc2)C(N)=O)C(C)C)NC(=O)[C@H](Cc2c[nH]c4ccccc24)NC(=O)[C@H](CCCCN)NC(=O)[C@H](Cc2c[nH]cn2)NC(=O)[C@H]([C@@H](C)O)NC(=O)[C@H](CCCNC(=N)N)NC(=O)[C@H](CO)NC3=O)NC(=O)[C@H](CCCCN)NC(=O)[C@H](CC(=O)O)NC(=O)[C@H](CC(N)=O)NC(=O)[C@H](CC(=O)O)NC(=O)[C@@H]2CCCN2C1=O` [compound 654], for which the Nav1.4/Nav1.7 in assay [1] (setting [3]) is given as 4.1. The Nav1.4/Nav1.3 in assay [2] (setting [4]) came to 18.4. Besides, the Nav1.7/Nav1.3 in assay [2] (ratio of IWQ Use values) is recorded as 4.4.

For `CC[C@H](C)[C@@H]1NC(=O)[C@@H]2CSSC[C@@H]3NC(=O)[C@H](C(C)C)NC(=O)[C@H](CC(C)C)NC(=O)[C@H](CC(N)=O)NC(=O)[C@@H]4CCCN4C(=O)[C@H](CCCNC(=N)N)NC(=O)[C@H](CSSC[C@H](NC(=O)[C@@H](N)CC(=O)O)C(=O)N[C@@H](CC(C)C)C(=O)NCC(=O)N[C@@H](Cc4ccc(Cl)c(Cl)c4)C(=O)N[C@@H](CCSC)C(=O)N[C@@H](CCCNC(=N)N)C(=O)N[C@@H](CCCCN)C(=O)N2)NC(=O)[C@H](CSSC[C@@H](C(=O)N[C@@H](CCCCN)C(=O)N[C@@H](Cc2ccc(O)cc2)C(=O)N[C@H](C(=O)N[C@@H](Cc2ccccc2)C(N)=O)C(C)C)NC(=O)[C@H](Cc2c[nH]c4ccccc24)NC(=O)[C@H](CCCCN)NC(=O)[C@H](Cc2c[nH]cn2)NC(=O)[C@H]([C@@H](C)O)NC(=O)[C@H](CCCNC(=N)N)NC(=O)[C@H](CO)NC3=O)NC(=O)[C@H](CCCCN)NC(=O)[C@H](CC(=O)O)NC(=O)[C@H](CC(N)=O)NC(=O)[C@H](CC(=O)O)NC(=O)[C@@H]2CCCN2C1=O` [compound 653], the Nav1.4/Nav1.7 in assay [1] (setting [3]) is 8.8. For the same molecule, the Nav1.4/Nav1.3 in assay [2] (setting [4]) came out at 17.7. For the same molecule, in assay [2] (ratio of IWQ Use values), the Nav1.7/Nav1.3 was 2.0. Regarding `CC[C@H](C)[C@@H]1NC(=O)[C@@H]2CSSC[C@@H]3NC(=O)[C@H](C(C)C)NC(=O)[C@H](CC(C)C)NC(=O)[C@H](CC(N)=O)NC(=O)[C@@H]4CCCN4C(=O)[C@H](CCCNC(=N)N)NC(=O)[C@H](CSSC[C@H](NC(=O)[C@@H](N)CC(=O)O)C(=O)N[C@@H](CCCNC(=N)N)C(=O)NCC(=O)N[C@@H](Cc4ccccc4)C(=O)N[C@@H](CCSC)C(=O)N[C@@H](CCCNC(=N)N)C(=O)N[C@@H](CCCCN)C(=O)N2)NC(=O)[C@H](CSSC[C@@H](C(=O)N[C@@H](CCCCN)C(=O)N[C@@H](Cc2ccc(O)cc2)C(=O)N[C@H](C(=O)N[C@@H](Cc2ccccc2)C(N)=O)C(C)C)NC(=O)[C@H](Cc2c[nH]c4ccccc24)NC(=O)[C@H](CCCCN)NC(=O)[C@H](Cc2c[nH]cn2)NC(=O)[C@H]([C@@H](C)O)NC(=O)[C@H](CCCNC(=N)N)NC(=O)[C@H](CO)NC3=O)NC(=O)[C@H](CCCCN)NC(=O)[C@H](CC(=O)O)NC(=O)[C@H](CC(N)=O)NC(=O)[C@H](CC(=O)O)NC(=O)[C@@H]2CCCN2C1=O` [SEQ ID NO: 155] (H-DCRGFMRKCIPDNDKCCRPNLVCSRTHKWCKYVF-NH2; disulfide 2-17, 9-23, 16-30), in assay [1], the IC50 was determined as 0.03 µM. For the molecule `CC[C@H](C)[C@@H]1NC(=O)[C@@H]2CSSC[C@@H]3NC(=O)[C@H](C(C)C)NC(=O)[C@H](CC(C)C)NC(=O)[C@H](CC(N)=O)NC(=O)[C@@H]4CCCN4C(=O)[C@H](CCCNC(=N)N)NC(=O)[C@H](CSSC[C@H](NC(=O)[C@@H](N)CC(=O)O)C(=O)N[C@@H](CCC(=O)O)C(=O)NCC(=O)N[C@@H](Cc4ccccc4)C(=O)N[C@@H](CCSC)C(=O)N[C@@H](CCCNC(=N)N)C(=O)N[C@@H](CCCCN)C(=O)N2)NC(=O)[C@H](CSSC[C@@H](C(=O)N[C@@H](CCCCN)C(=O)N[C@@H](Cc2ccc(O)cc2)C(=O)N[C@H](C(=O)N[C@@H](Cc2ccccc2)C(N)=O)C(C)C)NC(=O)[C@H](Cc2c[nH]c4ccccc24)NC(=O)[C@H](CCCCN)NC(=O)[C@H](Cc2c[nH]cn2)NC(=O)[C@H]([C@@H](C)O)NC(=O)[C@H](CCCNC(=N)N)NC(=O)[C@H](CO)NC3=O)NC(=O)[C@H](CCCCN)NC(=O)[C@H](CC(=O)O)NC(=O)[C@H](CC(N)=O)NC(=O)[C@H](CC(=O)O)NC(=O)[C@@H]2CCCN2C1=O` [SEQ ID NO: 19] (H-DCEGFMRKCIPDNDKCCRPNLVCSRTHKWCKYVF-NH2; disulfide 2-17, 9-23, 16-30), the IC50 in assay [1] (setting [5]) turned out to be 0.67 µM.

Take `CC[C@H](C)[C@@H]1NC(=O)[C@@H]2CSSC[C@@H]3NC(=O)[C@H](C(C)C)NC(=O)[C@H](CC(C)C)NC(=O)[C@H](CC(N)=O)NC(=O)[C@@H]4CCCN4C(=O)[C@H](CCCNC(=N)N)NC(=O)[C@H](CSSC[C@H](NC(=O)[C@@H](N)CC(=O)O)C(=O)N[C@@H](CC(C)C)C(=O)NCC(=O)N[C@@H](Cc4ccccc4)C(=O)N[C@@H](CCSC)C(=O)N[C@@H](CCCNC(=N)N)C(=O)N[C@@H](CCCCN)C(=O)N2)NC(=O)[C@H](CSSC[C@@H](C(=O)N[C@@H](CCCCN)C(=O)N[C@@H](Cc2ccc(O)cc2)C(=O)N[C@@H](CCC(=O)O)C(=O)N[C@@H](Cc2ccccc2)C(N)=O)NC(=O)[C@H](Cc2c[nH]c4ccccc24)NC(=O)[C@H](CCCCN)NC(=O)[C@H](Cc2c[nH]cn2)NC(=O)[C@H]([C@@H](C)O)NC(=O)[C@H](CCCNC(=N)N)NC(=O)[C@H](CO)NC3=O)NC(=O)[C@H](CCCCN)NC(=O)[C@H](CC(=O)O)NC(=O)[C@H](CC(N)=O)NC(=O)[C@H](CC(=O)O)NC(=O)[C@@H]2CCCN2C1=O` [SEQ ID NO: 33, [Glu33]GpTx-1] (H-DCLGFMRKCIPDNDKCCRPNLVCSRTHKWCKYEF-NH2; disulfide 2-17, 9-23, 16-30): the IC50 in assay [1] turned out to be 0.56 µM. `CC[C@H](C)[C@@H]1NC(=O)[C@@H]2CSSC[C@@H]3NC(=O)[C@H](C(C)C)NC(=O)[C@H](CC(C)C)NC(=O)[C@H](CC(N)=O)NC(=O)[C@@H]4CCCN4C(=O)[C@H](CCCNC(=N)N)NC(=O)[C@H](CSSC[C@H](NC(=O)[C@@H](N)CCCNC(=N)N)C(=O)N[C@@H](CC(C)C)C(=O)NCC(=O)N[C@@H](Cc4ccccc4)C(=O)N[C@@H](CCSC)C(=O)N[C@@H](CCCNC(=N)N)C(=O)N[C@@H](CCCCN)C(=O)N2)NC(=O)[C@H](CSSC[C@@H](C(=O)N[C@@H](CCCCN)C(=O)N[C@@H](Cc2ccc(O)cc2)C(=O)N[C@H](C(=O)N[C@@H](Cc2ccccc2)C(N)=O)C(C)C)NC(=O)[C@H](Cc2c[nH]c4ccccc24)NC(=O)[C@H](CCCCN)NC(=O)[C@H](Cc2c[nH]cn2)NC(=O)[C@H]([C@@H](C)O)NC(=O)[C@H](CCCNC(=N)N)NC(=O)[C@H](CO)NC3=O)NC(=O)[C@H](CCCCN)NC(=O)[C@H](CC(=O)O)NC(=O)[C@H](CC(N)=O)NC(=O)[C@H](CC(=O)O)NC(=O)[C@@H]2CCCN2C1=O` [SEQ ID NO: 62] (H-RCLGFMRKCIPDNDKCCRPNLVCSRTHKWCKYVF-NH2; disulfide 2-17, 9-23, 16-30): in assay [1], the IC50 amounted to 0.11 µM. As to `CC[C@H](C)[C@@H]1NC(=O)[C@@H]2CSSC[C@@H]3NC(=O)[C@H](C(C)C)NC(=O)[C@H](CC(C)C)NC(=O)[C@H](CC(N)=O)NC(=O)[C@@H]4CCCN4C(=O)[C@H](CCCNC(=N)N)NC(=O)[C@H](CSSC[C@H](NC(=O)[C@@H](N)CC(=O)O)C(=O)N[C@@H](CC(C)C)C(=O)N[C@@H](CCC(=O)O)C(=O)N[C@@H](Cc4ccccc4)C(=O)N[C@@H](CCSC)C(=O)N[C@@H](CCCNC(=N)N)C(=O)N[C@@H](CCCCN)C(=O)N2)NC(=O)[C@H](CSSC[C@@H](C(=O)N[C@@H](CCCCN)C(=O)N[C@@H](Cc2ccc(O)cc2)C(=O)N[C@H](C(=O)N[C@@H](Cc2ccccc2)C(N)=O)C(C)C)NC(=O)[C@H](Cc2c[nH]c4ccccc24)NC(=O)[C@H](CCCCN)NC(=O)[C@H](Cc2c[nH]cn2)NC(=O)[C@H]([C@@H](C)O)NC(=O)[C@H](CCCNC(=N)N)NC(=O)[C@H](CO)NC3=O)NC(=O)[C@H](CCCCN)NC(=O)[C@H](CC(=O)O)NC(=O)[C@H](CC(N)=O)NC(=O)[C@H](CC(=O)O)NC(=O)[C@@H]2CCCN2C1=O` [SEQ ID NO: 24] (H-DCLEFMRKCIPDNDKCCRPNLVCSRTHKWCKYVF-NH2; disulfide 2-17, 9-23, 16-30), the IC50 in assay [1] (setting [5]) turned out to be 1.74 µM.
